According to article PMC9851200, “Multiparameter phenotypic screening for endogenous TFEB and TFE3 translocation identifies novel chemical series modulating lysosome function” (Autophagy, 2022):
Where two headings read alike, the source gives them in different places.

Columns and labels:
CLEAR genes = test: RT-qPCR of CLEAR gene expression; format: cell-based; conditions: SH-SY5Y, 1 µM compound, 48 h
Experimental: We assessed autophagic flux by quantifying LC3-II levels using western blotting in compound-treated cells in the presence or absence of the lysosomal inhibitor bafilomycin A1. […] Given the lack of correlation between the ability of the compounds to upregulate CLEAR genes, and changes in LC3-II levels, the action of the compounds was therefore independent of autophagic flux. SH-SY5Y cells were treated with compounds in 12-well or 24-well plates (Corning Costar, […]). Cell pellets were harvested and RNA was extracted using the RNeasy Mini Kit (QIAGEN, 74,104) according to manufacturer's instructions. cDNA was generated from 500 ng RNA using Superscript III Reverse Transcriptase (Thermofisher Scientific, 18,080,085). Expression of the CLEAR genes CTSD, HEXA, LAMP1, CLCN7, ATP6V0A1, SQSTM1, UVRAG and GABARAP were assessed using Fast SYBR Green Master Mix standard protocol (Thermofisher Scientific, 4,309,155), on a StepOnePlusTM Real-Time PCR System (Applied biosystems, Waltham, MA, USA). Primer sequences are shown in Table S7A and were designed in Primer3 or by OriGene Technologies and validated in house for efficiency and specificity.

TLK1 = target: T1, TLK1 (Homo sapiens, UniProt Q9UKI8); test: KiNativ in-cell kinase binding, TLK1; conditions: SH-SY5Y cells, Labeling Site Lys2
T1 construct: endogenous in cells; host or cells: SH-SY5Y
Text: As KINOMEscan is an in vitro assay, and as different cell types have variable kinase expression profiles we sought to determine the kinase binding profile in our SH-SY5Y TFEB-relocalization cell model. […] Bound kinases were pulled down and analyzed by mass spectrometry to determine the in situ kinase binding profile for each compound.

[1] = target: kinases (KINOMEscan panel) (Homo sapiens, UniProt Q9H3Y6); format: binding; conditions: NEW KINOMEscan
TGFBR1 = target: T2, TGFBR1 (Homo sapiens, UniProt P36897); test: KINOMEscan TGFBR1; format: binding
T2 sequence (P36897 34-503): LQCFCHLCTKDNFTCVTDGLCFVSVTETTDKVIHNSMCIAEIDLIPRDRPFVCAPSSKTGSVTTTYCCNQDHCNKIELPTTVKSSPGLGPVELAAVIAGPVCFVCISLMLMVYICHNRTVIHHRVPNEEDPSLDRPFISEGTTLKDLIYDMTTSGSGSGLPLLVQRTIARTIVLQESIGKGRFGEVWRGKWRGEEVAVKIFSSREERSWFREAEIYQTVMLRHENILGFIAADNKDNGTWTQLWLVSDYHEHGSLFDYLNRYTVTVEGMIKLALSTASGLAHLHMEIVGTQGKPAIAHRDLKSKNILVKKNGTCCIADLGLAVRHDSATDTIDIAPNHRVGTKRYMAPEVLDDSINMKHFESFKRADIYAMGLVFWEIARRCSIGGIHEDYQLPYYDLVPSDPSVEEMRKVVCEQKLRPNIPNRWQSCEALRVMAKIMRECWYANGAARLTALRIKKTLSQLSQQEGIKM

PRKD2 = target: T3, PRKD2 (Homo sapiens, UniProt Q9BZL6); test: KINOMEscan PRKD2; format: binding; conditions: NEW KINOMEscan
T3 sequence (Q9BZL6 1-878): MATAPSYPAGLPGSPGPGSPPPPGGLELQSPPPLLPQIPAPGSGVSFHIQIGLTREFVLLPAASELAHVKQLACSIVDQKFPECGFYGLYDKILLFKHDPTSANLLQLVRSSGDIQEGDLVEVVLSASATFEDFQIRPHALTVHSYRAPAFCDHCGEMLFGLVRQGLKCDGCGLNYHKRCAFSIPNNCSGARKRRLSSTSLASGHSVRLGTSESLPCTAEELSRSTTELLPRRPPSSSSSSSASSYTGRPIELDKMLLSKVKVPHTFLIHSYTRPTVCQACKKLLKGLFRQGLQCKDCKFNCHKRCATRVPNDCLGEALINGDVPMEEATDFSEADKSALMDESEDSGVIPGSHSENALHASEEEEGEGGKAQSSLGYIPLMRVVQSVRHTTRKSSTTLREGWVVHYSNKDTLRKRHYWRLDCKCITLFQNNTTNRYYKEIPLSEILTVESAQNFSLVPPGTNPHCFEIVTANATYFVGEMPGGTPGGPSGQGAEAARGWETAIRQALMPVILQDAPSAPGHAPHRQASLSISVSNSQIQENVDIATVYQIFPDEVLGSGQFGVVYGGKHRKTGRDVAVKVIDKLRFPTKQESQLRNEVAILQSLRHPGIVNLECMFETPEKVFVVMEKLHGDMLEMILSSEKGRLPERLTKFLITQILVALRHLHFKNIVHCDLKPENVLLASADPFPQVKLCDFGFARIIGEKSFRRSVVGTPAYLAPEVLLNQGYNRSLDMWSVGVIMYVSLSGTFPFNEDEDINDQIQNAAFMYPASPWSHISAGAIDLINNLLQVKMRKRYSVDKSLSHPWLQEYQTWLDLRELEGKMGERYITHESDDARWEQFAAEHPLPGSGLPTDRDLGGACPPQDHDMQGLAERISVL

CDC42BPB/MRCKB = CDC42BPB/MRCKB (Homo sapiens, UniProt Q9Y5S2); format: binding
CSNK1D = CSNK1D (Homo sapiens, UniProt P48730); test: KINOMEscan CSNK1D; format: binding; conditions: NEW KINOMEscan
MTOR = MTOR (Homo sapiens, UniProt P42345); test: KINOMEscan MTOR; format: binding; conditions: NEW KINOMEscan
CSNK1E = CSNK1E (Homo sapiens, UniProt P49674); test: KINOMEscan CSNK1E; format: binding; conditions: NEW KINOMEscan
PIKFYVE = PIKFYVE (Homo sapiens, UniProt Q9Y2I7); test: KINOMEscan PIKFYVE; format: binding; conditions: kinase PIKFYVE; NEW KINOMEscan
BMPR1B = BMPR1B (Homo sapiens, UniProt O00238); test: KINOMEscan BMPR1B; format: binding; conditions: NEW KINOMEscan
PKNB(M.tuberculosis) = PKNB(M.tuberculosis) (Mycobacterium tuberculosis, UniProt P9WI81); format: binding
Chain of PKNB(M.tuberculosis) (P9WI81 whole entry, looked up): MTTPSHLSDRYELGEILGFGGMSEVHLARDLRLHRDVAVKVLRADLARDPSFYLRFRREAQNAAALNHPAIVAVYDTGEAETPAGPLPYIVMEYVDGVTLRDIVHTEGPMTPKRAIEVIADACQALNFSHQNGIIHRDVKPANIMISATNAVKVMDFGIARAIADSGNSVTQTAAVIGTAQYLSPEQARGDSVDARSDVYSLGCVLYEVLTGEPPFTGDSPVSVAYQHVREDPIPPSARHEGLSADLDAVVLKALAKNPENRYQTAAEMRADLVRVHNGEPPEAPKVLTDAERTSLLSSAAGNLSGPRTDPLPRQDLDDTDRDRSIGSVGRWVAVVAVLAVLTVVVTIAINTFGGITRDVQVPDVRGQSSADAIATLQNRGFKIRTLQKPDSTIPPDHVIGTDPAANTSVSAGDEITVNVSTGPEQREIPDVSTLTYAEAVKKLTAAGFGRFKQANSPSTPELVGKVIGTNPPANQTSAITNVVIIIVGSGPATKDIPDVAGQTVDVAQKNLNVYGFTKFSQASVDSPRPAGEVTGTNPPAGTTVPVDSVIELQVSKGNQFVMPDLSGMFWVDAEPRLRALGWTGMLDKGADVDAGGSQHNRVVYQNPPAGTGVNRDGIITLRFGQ

Chain of PIKFYVE (Q9Y2I7 whole entry): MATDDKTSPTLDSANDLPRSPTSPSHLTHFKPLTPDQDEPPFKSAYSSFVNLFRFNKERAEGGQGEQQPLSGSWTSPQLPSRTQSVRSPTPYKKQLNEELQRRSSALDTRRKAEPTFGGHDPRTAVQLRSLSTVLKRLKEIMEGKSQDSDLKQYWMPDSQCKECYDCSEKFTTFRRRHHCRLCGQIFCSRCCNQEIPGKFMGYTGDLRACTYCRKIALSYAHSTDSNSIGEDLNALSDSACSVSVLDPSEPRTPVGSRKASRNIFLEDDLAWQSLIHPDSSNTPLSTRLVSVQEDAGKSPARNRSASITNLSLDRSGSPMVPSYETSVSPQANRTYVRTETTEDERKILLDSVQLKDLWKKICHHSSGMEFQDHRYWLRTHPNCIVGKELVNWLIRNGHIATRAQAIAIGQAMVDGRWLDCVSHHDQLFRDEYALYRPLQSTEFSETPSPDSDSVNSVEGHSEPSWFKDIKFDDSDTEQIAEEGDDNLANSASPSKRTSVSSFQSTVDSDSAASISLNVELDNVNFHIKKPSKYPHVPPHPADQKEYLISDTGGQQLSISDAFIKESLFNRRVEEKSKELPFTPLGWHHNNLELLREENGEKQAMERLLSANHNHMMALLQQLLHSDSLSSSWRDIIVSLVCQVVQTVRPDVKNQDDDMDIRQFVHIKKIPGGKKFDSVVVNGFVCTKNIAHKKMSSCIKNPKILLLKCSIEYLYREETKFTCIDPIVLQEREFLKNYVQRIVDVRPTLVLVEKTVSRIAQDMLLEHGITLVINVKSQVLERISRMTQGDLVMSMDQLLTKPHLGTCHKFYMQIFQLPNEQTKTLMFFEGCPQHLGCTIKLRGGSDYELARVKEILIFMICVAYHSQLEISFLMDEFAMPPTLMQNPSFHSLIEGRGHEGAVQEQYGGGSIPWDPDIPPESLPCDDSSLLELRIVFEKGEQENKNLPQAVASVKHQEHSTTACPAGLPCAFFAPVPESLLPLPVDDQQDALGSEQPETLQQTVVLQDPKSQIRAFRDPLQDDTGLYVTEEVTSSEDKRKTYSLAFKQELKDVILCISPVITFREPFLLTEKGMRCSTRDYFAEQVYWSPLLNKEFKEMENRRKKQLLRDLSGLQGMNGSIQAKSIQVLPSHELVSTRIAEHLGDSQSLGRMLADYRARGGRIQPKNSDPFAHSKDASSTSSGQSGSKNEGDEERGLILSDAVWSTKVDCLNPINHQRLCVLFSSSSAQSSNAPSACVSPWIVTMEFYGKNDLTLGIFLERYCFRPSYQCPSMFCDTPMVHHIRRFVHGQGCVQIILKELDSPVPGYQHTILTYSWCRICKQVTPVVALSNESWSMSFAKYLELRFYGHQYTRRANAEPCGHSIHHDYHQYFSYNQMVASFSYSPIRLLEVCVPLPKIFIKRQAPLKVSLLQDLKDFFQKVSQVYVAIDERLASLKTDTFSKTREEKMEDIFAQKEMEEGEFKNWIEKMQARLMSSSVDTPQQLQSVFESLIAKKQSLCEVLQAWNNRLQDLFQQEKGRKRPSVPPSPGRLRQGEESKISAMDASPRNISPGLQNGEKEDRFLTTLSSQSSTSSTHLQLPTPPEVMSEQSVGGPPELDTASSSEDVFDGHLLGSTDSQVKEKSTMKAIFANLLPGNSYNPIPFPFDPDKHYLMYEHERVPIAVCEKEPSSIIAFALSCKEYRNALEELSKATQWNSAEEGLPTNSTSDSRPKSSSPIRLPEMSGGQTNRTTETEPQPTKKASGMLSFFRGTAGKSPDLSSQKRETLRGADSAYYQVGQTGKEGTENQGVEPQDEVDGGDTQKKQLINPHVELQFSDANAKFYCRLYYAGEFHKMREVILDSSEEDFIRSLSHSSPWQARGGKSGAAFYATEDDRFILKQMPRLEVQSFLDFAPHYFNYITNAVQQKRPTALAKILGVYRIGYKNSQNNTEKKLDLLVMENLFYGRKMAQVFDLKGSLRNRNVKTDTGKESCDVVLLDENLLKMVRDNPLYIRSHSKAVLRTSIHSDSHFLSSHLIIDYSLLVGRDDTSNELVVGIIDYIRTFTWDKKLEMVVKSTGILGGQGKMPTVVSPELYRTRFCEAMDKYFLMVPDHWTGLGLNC
Chain of CSNK1D (P48730 whole entry): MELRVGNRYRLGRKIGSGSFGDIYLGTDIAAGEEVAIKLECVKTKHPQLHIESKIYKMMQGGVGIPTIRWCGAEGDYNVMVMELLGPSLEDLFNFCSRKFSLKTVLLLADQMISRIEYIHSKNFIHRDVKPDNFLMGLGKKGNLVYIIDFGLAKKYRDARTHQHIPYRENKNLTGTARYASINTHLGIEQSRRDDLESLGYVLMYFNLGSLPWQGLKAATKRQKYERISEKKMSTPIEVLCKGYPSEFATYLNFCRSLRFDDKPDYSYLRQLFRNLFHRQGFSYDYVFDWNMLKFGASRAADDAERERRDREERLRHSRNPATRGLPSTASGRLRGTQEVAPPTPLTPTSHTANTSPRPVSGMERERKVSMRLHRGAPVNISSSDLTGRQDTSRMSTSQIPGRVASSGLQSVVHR
Chain of CSNK1E (P49674 whole entry): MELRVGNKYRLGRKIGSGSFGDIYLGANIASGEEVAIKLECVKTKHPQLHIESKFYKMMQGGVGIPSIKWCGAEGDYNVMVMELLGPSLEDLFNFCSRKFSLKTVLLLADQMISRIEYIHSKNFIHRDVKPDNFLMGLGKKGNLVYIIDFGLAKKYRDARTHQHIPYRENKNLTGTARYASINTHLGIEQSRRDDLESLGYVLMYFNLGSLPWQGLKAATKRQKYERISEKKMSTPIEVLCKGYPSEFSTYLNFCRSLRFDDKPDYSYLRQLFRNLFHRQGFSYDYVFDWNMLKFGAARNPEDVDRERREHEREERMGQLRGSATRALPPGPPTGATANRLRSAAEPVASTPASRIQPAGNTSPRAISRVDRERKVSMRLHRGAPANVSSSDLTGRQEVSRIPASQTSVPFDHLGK
Chain of BMPR1B (O00238 14-502): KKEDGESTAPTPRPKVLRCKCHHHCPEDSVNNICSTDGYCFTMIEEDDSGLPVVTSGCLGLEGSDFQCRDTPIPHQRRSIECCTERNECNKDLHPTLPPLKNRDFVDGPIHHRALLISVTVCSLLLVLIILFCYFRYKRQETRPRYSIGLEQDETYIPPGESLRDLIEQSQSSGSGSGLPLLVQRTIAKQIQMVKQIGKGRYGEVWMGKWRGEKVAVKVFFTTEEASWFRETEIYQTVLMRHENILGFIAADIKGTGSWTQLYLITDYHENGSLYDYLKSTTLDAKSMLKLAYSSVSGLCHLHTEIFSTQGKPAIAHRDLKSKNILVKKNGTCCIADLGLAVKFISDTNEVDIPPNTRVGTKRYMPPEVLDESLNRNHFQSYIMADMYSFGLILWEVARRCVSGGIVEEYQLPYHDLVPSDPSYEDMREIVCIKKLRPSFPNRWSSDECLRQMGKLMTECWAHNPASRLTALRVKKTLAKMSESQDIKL
Chain of kinases (KINOMEscan panel) (Q9H3Y6 whole entry): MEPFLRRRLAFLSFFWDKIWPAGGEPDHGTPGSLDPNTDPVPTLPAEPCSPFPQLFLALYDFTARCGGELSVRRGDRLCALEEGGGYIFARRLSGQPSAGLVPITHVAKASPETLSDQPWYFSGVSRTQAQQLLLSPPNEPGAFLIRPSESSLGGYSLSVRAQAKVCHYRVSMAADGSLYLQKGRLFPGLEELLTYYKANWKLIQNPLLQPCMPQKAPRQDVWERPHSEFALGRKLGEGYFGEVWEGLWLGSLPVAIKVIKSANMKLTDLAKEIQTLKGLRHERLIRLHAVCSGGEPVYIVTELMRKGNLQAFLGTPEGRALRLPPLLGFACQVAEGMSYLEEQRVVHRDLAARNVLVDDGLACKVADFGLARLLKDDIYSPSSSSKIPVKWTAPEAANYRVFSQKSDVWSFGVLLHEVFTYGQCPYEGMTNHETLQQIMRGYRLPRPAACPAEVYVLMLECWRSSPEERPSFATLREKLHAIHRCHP

Q: How did the “CLEAR gene expression (in words)” value (CLEAR genes) turn out when Cc1cccc(-c2nc(Nc3ccc4ncsc4c3)c3ccccc3n2)n1 [NK140] was run?
A: The value was “upregulation of a number of CLEAR genes”.

Q: And the inhibition at 2 µM (TLK1)?
A: Its inhibition at 2 µM is 48.9%.

Q: Cc1cccc(-c2nc(Nc3ccc4nn(C)cc4c3)c3ccccc3n2)n1 [NK167] was tested. Which “KINOMEscan SRMS” value [1] did it give?
A: Its value is 21.

Q: What about the “KINOMEscan TGFBR1” value (TGFBR1) of the same molecule?
A: Its value is 21.

Q: What about the “KINOMEscan PRKD2” value (PRKD2) of the same molecule?
A: Its value is 39.

Q: And the “KINOMEscan CDC42BPB/MRCKB” value (CDC42BPB/MRCKB)?
A: Its value is 0.

Q: And the “KINOMEscan CSNK1D” value (CSNK1D)?
A: The value was 4.

Q: And the “KINOMEscan MTOR” value (MTOR)?
A: The value was 0.

Q: And the “KINOMEscan CSNK1E” value (CSNK1E)?
A: Its value is 8.

Q: What about the “KINOMEscan PIKFYVE” value (PIKFYVE) of the same molecule?
A: Its value is 0.

Q: What about the “KINOMEscan BMPR1B” value (BMPR1B) of the same molecule?
A: Its value is 0.

Q: And the “KINOMEscan PKNB(M.tuberculosis)” value (PKNB(M.tuberculosis))?
A: The value was 12.

Q: How did the “KINOMEscan SRMS” value [1] turn out when Cc1cccc(-c2nc(N(C)c3ccc4ncsc4c3)c3ccccc3n2)n1 [NK-161] was run?
A: The value was 26.

Q: What about the “KINOMEscan TGFBR1” value (TGFBR1; TGFBR1, NEW KINOMEscan) of the same molecule?
A: Its value is 12.

Q: What about the “KINOMEscan PRKD2” value (PRKD2) of the same molecule?
A: Its value is 63.

Q: And the “KINOMEscan CDC42BPB/MRCKB” value (CDC42BPB/MRCKB)?
A: The value was 5.

Q: And the “KINOMEscan CSNK1D” value (CSNK1D)?
A: The value was 11.

Q: What about the “KINOMEscan MTOR” value (MTOR) of the same molecule?
A: Its value is 4.

Q: What about the “KINOMEscan CSNK1E” value (CSNK1E) of the same molecule?
A: The value was 7.

Q: What about the “KINOMEscan PIKFYVE” value (PIKFYVE) of the same molecule?
A: Its value is 16.

Q: What about the “KINOMEscan BMPR1B” value (BMPR1B) of the same molecule?
A: Its value is 8.

Q: What about the “KINOMEscan PKNB(M.tuberculosis)” value (PKNB(M.tuberculosis)) of the same molecule?
A: Its value is 9.
